# Experiments:
# HSP90a protein = molecular target: T1, HSP90a protein (Homo sapiens, UniProt P07900); assay: HSP90α-binding fluorescent polarization (FP) assay, BODIPY-labeled RNK04010 probe; conditions: FP competition with RNK04010 (BODIPY-labeled), 5 nM, 300 min at 25° C.
# T1 construct: purchased BPS Bioscience 50298
# Outline: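 Displacement of a 5 nM fluorescent HSP90 ligand from the N-terminal HSP90a domain by FP. Incubation ran at 25° C: 120 min for the FITC-geldanamycin tracer, 300 min for the BODIPY-conjugated triazolone RNK04010.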
# [1] = tested on: MIA PaCa-2 human pancreatic carcinoma; assay: MIA PaCa-2 CCK-8 proliferation assay; assay type: cell-based; conditions: Homo sapiens, MIA PaCa-2, 72 h, MIA PaCa-2 cells
# Outline: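 Three KRAS(G12C) lines are used, MIA PaCa-2 at two mutant copies and the NSCLC lines NCI-H358 and NCI-H23 at one. Each compound is titrated 3-fold from 20 μM to 1.02 nM, and proliferation is scored by CCK-8.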
# KRAS(G12C) = KRAS(G12C) (Homo sapiens, UniProt P01116, G12C); assay: KRAS(G12C)/SOS1 homogeneous time-resolved fluorescence (HTRF) assay; set-up: purchased Cisbio 63ADK000CB16PEG; conditions: absence of GTP, 4° C. for 3 hr, read-out: KRAS (G12C) binding
# Chain of KRAS(G12C) (P01116 1-188 isoform P01116-2 G12C): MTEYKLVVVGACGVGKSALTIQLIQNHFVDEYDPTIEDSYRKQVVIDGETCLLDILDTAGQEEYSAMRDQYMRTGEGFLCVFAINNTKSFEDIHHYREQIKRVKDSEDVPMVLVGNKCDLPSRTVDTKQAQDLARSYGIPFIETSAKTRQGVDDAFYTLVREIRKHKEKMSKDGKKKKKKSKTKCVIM
# Outline: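 HTRF kit measuring compound-induced block of KRAS(G12C)-SOS1 interaction without GTP. Compounds tested as 3-fold serial dilutions down to 1.02 nM, incubated with reaction components 3 h at 4 °C in sealed plates before fluorescence read.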
SMILES,IC50 (HSP90a protein),EC50 [1],IC50 (KRAS(G12C))
"C=CC(=O)N1CCN(c2nc(OC[C@@H]3C[C@@H](OCC(=O)NCc4ccc(-n5c(O)nnc5-c5cc(C(C)C)c(O)cc5O)cc4)CN3C)nc3c2CCN(c2cccc4cccc(Cl)c24)C3)C[C@@H]1CC#N [Compound 302, 2-(((3R,5S)-5-(((4-((S)-4-acryloyl-3-(cyanomethyl)piperazin-1-yl)-7-(8-chloronaphthalen-1-yl)-5,6,7,8-tetrahydropyrido[3,4-d]pyrimidin-2-yl)oxy)methyl)-1-methylpyrrolidin-3-yl)oxy)-N-(4-(3-(2,4-dihydroxy-5-isopropylphenyl)-5-hydroxy-4H-1,2,4-triazol-4-yl)benzyl)acetamide]",< 100 nM,100 to 1000 nM,100 to 1000 nM
"C=CC(=O)N1CCN(c2nc(OC[C@@H]3C[C@@H](OCC(=O)N4CCC(CN5CCN(Cc6ccc(-n7c(O)nnc7-c7cc(C(C)C)c(O)cc7O)cc6)CC5)CC4)CN3C)nc3c2CCN(c2cccc4cccc(Cl)c24)C3)C[C@@H]1CC#N [Compound 301, 2-((S)-1-acryloyl-4-(7-(8-chloronaphthalen-1-yl)-2-(((2S,4R)-4-(2-(4-((4-(4-(3-(2,4-dihydroxy-5-isopropylphenyl)-5-hydroxy-4H-1,2,4-triazol-4-yl)benzyl)piperazin-1-yl)methyl)piperidin-1-yl)-2-oxoethoxy)-1-methylpyrrolidin-2-yl)methoxy)-5,6,7,8-tetrahydropyrido[3,4-d]pyrimidin-4-yl)piperazin-2-yl)acetonitrile]",< 100 nM,100 to 1000 nM,100 to 1000 nM
"C=CC(=O)N1CCN(c2nc(OC[C@@H]3C[C@H](NC(=O)C4CCN(C(=O)C5CCN(Cc6ccc(-n7c(C(=O)NCC(F)(F)C(F)(F)F)nnc7-c7cc(C(C)C)c(O)cc7O)cc6)CC5)CC4)CN3C)nc3c2CCN(c2cccc4cccc(Cl)c24)C3)C[C@@H]1CC#N [Compound 308, N-[(3S,5S)-5-({[7-(8-chloronaphthalen-1-yl)-4-[(3S)-3-(cyanomethyl)-4-(prop-2-enoyl)piperazin-1-yl]-5H,6H,8H-pyrido[3,4-d]pyrimidin-2-yl]oxy}methyl)-1-methylpyrrolidin-3-yl]-1-[1-({4-[3-(2,4-dihydroxy-5-isopropylphenyl)-5-[(2,2,3,3,3-pentafluoropropyl)carbamoyl]-1,2,4-triazol-4-yl]phenyl}methyl)piperidine-4-carbonyl]piperidine-4-carboxamide]",< 100 nM,< 100 nM,< 100 nM
"C=CC(=O)N1CCN(c2nc(OC[C@@H]3C[C@H](NC(=O)C4CCN(C(=O)c5ccc(-n6c(O)nnc6-c6cc(C(C)C)c(O)cc6O)cc5)CC4)CN3C)nc3c2CCN(c2cccc4cccc(Cl)c24)C3)C[C@@H]1CC#N [Compound 315, N-[(3S,5S)-5-({[7-(8-chloronaphthalen-1-yl)-4-[(3S)-3-(cyanomethyl)-4-(prop-2-enoyl)piperazin-1-yl]-5H,6H,8H-pyrido[3,4-d]pyrimidin-2-yl]oxy}methyl)-1-methylpyrrolidin-3-yl]-1-{4-[3-(2,4-dihydroxy-5-isopropylphenyl)-5-hydroxy-1,2,4-triazol-4-yl]benzoyl}piperidine-4-carboxamide]",< 100 nM,> 1000 nM,< 100 nM
"C=CC(=O)N1CCN(c2nc(OCC3CCC(CNCc4ccc(-n5c(O)nnc5-c5cc(CC)c(O)cc5O)cc4)N3)nc3c2CCN(c2cccc4cccc(Cl)c24)C3)C[C@@H]1CC#N (stereo partly drawn) [Compound 299, 2-((2S)-1-acryloyl-4-(7-(8-chloronaphthalen-1-yl)-2-((5-(((4-(3-(5-ethyl-2,4-dihydroxyphenyl)-5-hydroxy-4H-1,2,4-triazol-4-yl)benzyl)amino)methyl)pyrrolidin-2-yl)methoxy)-5,6,7,8-tetrahydropyrido[3,4-d]pyrimidin-4-yl)piperazin-2-yl)acetonitrile]",< 100 nM,> 1000 nM,100 to 1000 nM

# Continued, values first:
IC50 (HSP90a protein),EC50 [1],IC50 (KRAS(G12C)),SMILES
< 100 nM,100 to 1000 nM,100 to 1000 nM,"C=CC(=O)N1CCN(c2nc(OC[C@@H]3C[C@H](N(C)CCC(=O)N4CCN(Cc5ccc(-n6c(C(=O)NCC(F)(F)F)nnc6-c6cc(C(C)C)c(O)cc6O)cc5)CC4)CN3C)nc3c2CCN(c2cccc4cccc(Cl)c24)C3)C[C@@H]1CC#N [Compound 337, 4-(4-{[4-(3-{[(3S,5S)-5-({[7-(8-chloronaphthalen-1-yl)-4-[(3S)-3-(cyanomethyl)-4-(prop-2-enoyl)piperazin-1-yl]-5H,6H,8H-pyrido[3,4-d]pyrimidin-2-yl]oxy}methyl)-1-methylpyrrolidin-3-yl](methyl)amino}propanoyl)piperazin-1-yl]methyl}phen-yl)-5-(2,4-dihydroxy-5-isopropylphenyl)-N-(2,2,2-trifluoroethyl)-1,2,4-triazole-3-carboxamide]"
< 100 nM,100 to 1000 nM,< 100 nM,"C=CC(=O)N1CCN(c2nc(OC[C@@H]3C[C@H](N4CCC5(CCN(C(=O)C6CCN(Cc7ccc(-n8c(O)nnc8-c8cc(C(C)C)c(O)cc8O)cc7)CC6)CC5)CC4)CN3C)nc3c2CCN(c2cccc4cccc(Cl)c24)C3)C[C@@H]1CC#N [Compound 318, 2-[(2S)-4-[7-(8-chloronaphthalen-1-yl)-2-{[(2S,4S)-4-{9-[1-({4-[3-(2,4-dihydroxy-5-isopropylphenyl)-5-hydroxy-1,2,4-triazol-4-yl]phenyl}methyl)piperidine-4-carbonyl]-3,9-diazaspiro[5.5]undecan-3-yl}-1-methylpyrrolidin-2-yl]methoxy}-5H,6H,8H-pyrido[3,4-d]pyrimidin-4-yl]-1-(prop-2-enoyl)piperazin-2-yl]acetonitrile]"
< 100 nM,100 to 1000 nM,< 100 nM,"C=CC(=O)N1CCN(c2nc(OC[C@@H]3C[C@H](C(=O)N4CCN(Cc5ccc(-n6c(C(=O)NCCN7CCN(S(C)(=O)=O)CC7)nnc6-c6cc(C(C)C)c(O)cc6O)cc5)CC4)CN3C)nc3c2CCN(c2cccc4cccc(Cl)c24)C3)C[C@@H]1CC#N [Compound 344, 4-[4-({4-[(3S,5S)-5-({[7-(8-chloronaphthalen-1-yl)-4-[(3S)-3-(cyanomethyl)-4-(pr-op-2-enoyl)piperazin-1-yl]-5H,6H,8H-pyrido[3,4-d]pyrimidin-2-yl]oxy}methyl)-1-methylpyrrolidine-3-carbonyl]piperazin-1-yl}methyl)phenyl]-5-(2,4-dihydroxy-5-isopropylphenyl)-N-[2-(4-methanesulfonylpiperazin-1-yl)ethyl]-1,2,4-triazole-3-carboxamide]"
< 100 nM,100 to 1000 nM,100 to 1000 nM,"C=CC(=O)N1CCN(c2nc(OC[C@@H]3C[C@H](C(=O)N4CCN(Cc5ccc(-n6c(C(=O)NCC(F)(F)C(F)(F)F)nnc6-c6cc(C(C)C)c(O)cc6O)cc5)CC4)CN3C)nc3c2CCN(c2cccc4cccc(Cl)c24)C3)C[C@@H]1CC#N [Compound 339, 4-[4-({4-[(3S,5S)-5-({[7-(8-chloronaphthalen-1-yl)-4-[(3S)-3-(cyanomethyl)-4-(pr-op-2-enoyl)piperazin-1-yl]-5H,6H,8H-pyrido[3,4-d]pyrimidin-2-yl]oxy}methyl)-1-methylpyrrolidine-3-carbonyl]piperazin-1-yl}methyl)phenyl]-5-(2,4-dihydroxy-5-isopropylphenyl)-N-(2,2,3,3,3-pentafluoropropyl)-1,2,4-triazole-3-carboxamide]"
